Read-outs that look alike come from different tables or passages of the source.

Experiment [1] has as its system HPPD Seq ID 69 ID406. In words: HPPD activity assay. To be noted: HPPD enzyme Seq ID 69 ID406. It is filed as biochemical, Zea mays. The method, then:
(§1) The activity assay for HPPD is based on the analysis of homogentisic acid by reversed phase HPLC.
(§2) The assay mixture can contain 150 mM potassium phosphate buffer pH 7.0, 50 mM L-ascorbic acid, 100 μM Catalase (Sigma-Aldrich), 1 μM FeSO4 and 0.2 units of purified HPPD enzyme in a total volume of 505 μl. 1 unit is defined as the amount of enzyme that is required to produce 1 nmol of HGA per minute at 20° C.
(§3) The reaction is allowed to proceed for 45 min at room temperature. The reaction is stopped by the addition of 50 μl of 4.5 M phosphoric acid. The sample is filtered using a […] pore size PVDF filtration device. 5 μl of the cleared sample is analyzed on an UPLC HSS T3 column (particle size 1.8 μm, dimensions 2, 1×50 mm; Waters) by isocratic elution using 90% 20 mM NaH2PO4 pH 2.2, 10% methanol (v/v).
(§4) HGA is detected electrochemically at 750 mV (mode: DC; polarity: positive) and quantified by integrating peak areas (Empower software; Waters).
(§5) Inhibitors are dissolved in DMSO (dimethylsulfoxide) to a concentration of 0.5 mM. From this stock solution serial five-fold dilutions are prepared in DMSO, which are used in the assay. The respective inhibitor solution accounts for 1% of the assay volume. Thus, final inhibitor concentrations range from 5 μM to 320 pM, respectively. Activities are normalized by setting the uninhibited enzyme activity to 100%. IC50 values are calculated using non-linear regression.
(§6) Using methods which are described in the above examples or well known in the art, purified recombinant wild-type HPPD enzymes are characterized with respect to their kinetic properties and sensitivity towards HPPD inhibiting herbicides. Apparent michaelis constants (Km) and maximal reaction velocities (Vmax) are calculated by non-linear regression with the software GraphPad Prism 5 (GraphPad Software, La Jolla, USA) using a substrate inhibition model. […] Weighted means (by standard error) of Km and IC50 values are calculated from at least three independent experiments. The Cheng-Prusoff equation for competitive inhibition (Cheng, Y. C.; Prusoff, W. H. Biochem Pharmacol 1973, 22, 3099-3108) is used to calculate dissociation constants (Ki).
(§7) Field performance of the HPPD enzyme, which is used as a herbicide tolerance trait may depend not only on its lack of sensitivity towards HPPD inhibiting herbicides but also on its activity. To assess the potential performance of a herbicide tolerance trait a tolerance index (TI) is calculated using the following formula: […]
(§8) Easy comparison and ranking of each trait is enabled by normalizing tolerance indexes on Arabidopsis wild-type HPPD.

In experiment [2] the test system is HPPD Seq ID 67 ID10. Kind of experiment: HPPD activity assay. It is filed as biochemical, Zea mays. Particulars: HPPD enzyme Seq ID 67 ID10. The protocol:
as §1, §2, §3, §4, §5, §6, §7, §8

For experiment [3], the system named is Picrophilus HPPD. Kind of experiment: HPPD activity assay. The format is biochemical, Picrophilus torridus. To be noted: HPPD enzyme Picrophilus. The method, then:
as §1, §2, §3, §4, §5, §6, §7, §8

Experiment [4] deals with Avena HPPD. Kind of experiment: HPPD activity assay. It is filed as biochemical, Avena sativa. To be noted: HPPD enzyme Avena. The protocol: as §1, §2, §3, §4, §5, §6, §7, §8
Experiment [5] relates to Arabidopsis overexpression line Synechocystis HPPD. Kind of experiment: Germination assay in 48-well plates. The format is in vivo, Arabidopsis thaliana. To be noted: IC50 transgenic / wildtype, mean of 5 T2 events. The method, then: (§9) Depending on the species, the plants are kept at 10-25° C. or 20-35° C. The test period extends over 3 weeks. During this time, the plants are tended and their response to the individual treatments is evaluated. Herbicide injury evaluations are taken at 2 and 3 weeks after treatment. Plant injury is rated on a scale of 0 to 9, 0 being no injury and 9 being complete death. Tolerance to HPPD-inhibiting, preferably pyrazolone, isoxazole, or triketone derivative herbicides can also be assessed in Arabidopsis. In this case transgenic Arabidopsis thaliana plants are assayed for improved tolerance to HPPD-inhibiting, preferably pyrazolone, isoxazole, or triketone derivative herbicides in 48-well plates. Seeds are surface sterilized by stirring for 5 min in ethanol+water (70+30 by volume), rinsing one time with ethanol+water (70+30 by volume) and two times with a sterile, deionized water. The seeds are resuspended in 0.1% agar dissolved in water (w/v). Four to five seeds per well are plated on solid nutrient medium consisting of half-strength Murashige Skoog nutrient solution, pH 5.8 (Murashige and Skoog (1962) Physiologia Plantarum 15: 473-497). Compounds are dissolved in dimethylsulfoxid (DMSO) and added to the medium prior solidification (final DMSO concentration 0.1%). Multi well plates are incubated in a growth chamber at 22° C., 75% relative humidity and 110 μmol Phot*m−2*s−1 with 14:10 h light:dark photoperiod. Seven to ten days after seeding growth inhibition is evaluated by comparison to wild type plants. Tolerance factor is calculated by dividing the plant growth IC50 value of transgenic plants containing a HPPD and/or HST sequence by that of wildtype plants.

For experiment [6], the system named is Arabidopsis wild-type control. Kind of experiment: Germination assay in 48-well plates. The format is in vivo, Arabidopsis thaliana. Particulars: plant growth IC50 ratio to wildtype, mean of 5 T2 events. The protocol: as §9
Experiment [7] relates to Arabidopsis overexpression line Arabidopsis HPPD. In words: Germination assay in 48-well plates. Particulars: plant growth IC50 transgenic / wildtype, mean of 5 T2 events. The format is in vivo, Arabidopsis thaliana. The method, then: as §9
The subject of experiment [8] is transgenic Arabidopsis plants (T2) HvHPPD L320H. The format is in vivo, Arabidopsis thaliana. Particulars: for Injury evaluation: Arabidopsis T2 HvHPPD L320H, two weeks after treatment. An excerpt: (§10) For post emergence treatment, the test plants are first grown to a height of 3 to 15 cm, depending on the plant habit, and only then treated with the herbicides. For this purpose, the test plants are either sown directly and grown in the same containers, or they are first grown separately and transplanted into the test containers a few days prior to treatment.
(§11) Herbicide injury scoring is done 2-3 weeks after treatment and is rated on a scale of 0 to 100%, 0% being no injury and 100% being complete death.
(§12) Transgenic Arabidopsis plants were sprayed with a range of doses from 0.78-6.25 g/ha of different HPPD-inhibiting herbicides and injury evaluations were taken two weeks after treatment.

Experiment [9] relates to transgenic Arabidopsis plants (T2) HvHPPD L320H, P321A. Kind of experiment: Greenhouse herbicide spray test. It is filed as in vivo, Arabidopsis thaliana. Particulars: two weeks after treatment.
Text: as §10, §11, §12

Experiment [10] concerns transgenic Arabidopsis plants (T2) AtHPPD M335Y, P336A, E363Q. Kind of experiment: Greenhouse herbicide spray test. Particulars: two weeks after treatment. The format is in vivo, Arabidopsis thaliana.
Text: as §10, §11, §12

Turning to `CS(=O)(=O)c1ccc(C(=O)C2C(=O)CCCC2=O)c(Cl)c1COCC(F)(F)F` [Inhibitor 4, 2-[2-chloro-4-methylsulfonyl-3-(2,2,2-trifluoroethoxymethyl)benzoyl]cyclohexane-1,3-dione], the “TI normalized to Arabidopsis HPPD” value is 5.5 in experiment [1], 26 in [2], 0.4 in experiment [3] and 3 in experiment [4].
The matching figures for `COCCOCc1nc(C(F)(F)F)ccc1C(=O)C1=C(O)C2CCC(C2)C1=O` (stereo not drawn) [Inhibitor 3, 2-hydroxy-3-[2-(2-methoxyethoxymethyl)-6-(trifluoromethyl)pyridine-3-carbonyl]bicyclo[3.2.1]oct-2-en-4-one]: 9.9, 20.1, 7.8 and 2.5.
On to `Cc1c(C(=O)c2cnn(C)c2O)ccc(S(C)(=O)=O)c1C1=NOCC1` [Inhibitor 1, [3-(4,5-dihydroisoxazol-3-yl)-2-methyl-4-methylsulfonyl-phenyl]-(5-hydroxy-1-methyl-pyrazol-4-yl)methanone], for which the “TI normalized to Arabidopsis HPPD” value in experiment [1] is recorded as 15; in [2] it was 120.8; in experiment [3], 10.4; in experiment [4], 1.6. In addition, the Tolerance factor was 7.5 in experiment [5], 1 in experiment [6] and 9 in experiment [7]. Moreover, the fold increased tolerance in experiment [8] (Arabidopsis HvHPPD L320H, lowest concentration tested) is 6.5 fold. Further, the Injury evaluation was found to be 13% in experiment [8] (0.78 g/ha); 57% in experiment [8] (1.56 g/ha); 68% in [8] (3.125 g/ha); 94% in [8] (6.25 g/ha); 0% in [9] (0.78 g/ha); 0% in [9] (1.56 g/ha). Besides, the Injury evaluation in [9] (3.125 g/ha) came to 0%; in [9] (6.25 g/ha), 0%; in experiment [10] (0.78 g/ha), 12%; in experiment [10] (1.56 g/ha), 21%; in experiment [10] (3.125 g/ha), 42%; in experiment [10] (6.25 g/ha), 68%.
For `CS(=O)(=O)c1ccc(C(=O)C2C(=O)CCCC2=O)c([N+](=O)[O-])c1` [Inhibitor 2, 2-(4-methylsulfonyl-2-nitro-benzoyl)cyclohexane-1,3-dione], the “TI normalized to Arabidopsis HPPD” value in experiment [1] came to 5.6; in experiment [2], 22.9; in experiment [3], 0.2; in experiment [4] it was 3. The Tolerance factor turned out to be 10 in experiment [5], 1 in [6] and 10 in experiment [7]. Also, the “resistance (in words)” value in [8] (Arabidopsis HvHPPD L320H, 0.78-6.25 g/ha) is “resistant”. The Injury evaluation in [8] (0.78 g/ha), in [8] (1.56 g/ha), in [8] (3.125 g/ha), in experiment [8] (6.25 g/ha), in experiment [9] (0.78 g/ha) and in experiment [9] (1.56 g/ha) was 0% in each case. Moreover, the Injury evaluation in [9] (3.125 g/ha) was 0%; in experiment [9] (6.25 g/ha), 0%; in experiment [10] (0.78 g/ha) it was 5%; in experiment [10] (1.56 g/ha), 12%; in experiment [10] (3.125 g/ha) it was 21%; in experiment [10] (6.25 g/ha), 38%.

For the origin of these results see US12065654B2, “Plants having increased tolerance to herbicides” (BASF SE, priority 2014, dated 2024).
